Experimental findings from ChEMBL document CHEMBL1201862, “PubChem BioAssay data set” (2004) are described below.

Among the test systems are CAKI-1; CCRF-CEM; HCT-15; HT-29; LOX IMVI; MOLT-4; NCI-H23; NCI-H460; OVCAR-3; SF-295; SF-539; SK-MEL-28; SK-MEL-2; SK-OV-3; SNB-19; SR; TK-10; UACC-62; UO-31; NCI-H522.
What all share (experiment): inhibition of tumour cell growth, NCI panel, 48 h

The structures appear in SMILES notation.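 Each compound was tested at five concentrations against cells in 96-well plates for 48 hours. Here, GI50 denotes the concentration required for 50% inhibition of growth.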 Calls of active or inactive are those of the source. No stated cut-off is given here; in the data, active = GI50 up to about 1.1 µM and inactive = higher. Where only a bound is given, the exact number is not on record here.

Regarding `Cc1ccc(O)c(C2=CC3=NNC(=O)C3C(c3cccc(Cl)c3)C2)c1` (configuration not stated), the GI50 with CAKI-1 was 32.5 µM (inactive); with CCRF-CEM, 31.6 µM (inactive); with HCT-15 it was 30.6 µM; with HT-29, 25.9 µM (inactive); with LOX IMVI, 23 µM (inactive); in the test on MOLT-4, 46.2 µM (inactive). Moreover, the GI50 in the test on NCI-H23 was 36.7 µM (inactive); with NCI-H460, 32.4 µM (inactive); in the test on OVCAR-3, 26.4 µM (inactive); with SF-295, 37.6 µM (inactive); in the test with SF-539, 45.2 µM (inactive); in the test with SK-MEL-28, 28.1 µM (inactive). Further, the GI50 with SK-MEL-2 is 28.2 µM (inactive); in the test with SK-OV-3, 23.9 µM (inactive); in the test with SNB-19, 50.6 µM (inactive); in the test with SR, 29.4 µM (inactive); in the test with TK-10, 28.1 µM (inactive); in the test on UACC-62, 24.9 µM (inactive). Besides, in the test with UO-31, the GI50 is 71.6 µM (inactive).
As to `Cc1ccc(-c2[nH]c(=O)n(C3OC(CO)C(O)C(O)C3O)c(=O)c2C#N)cc1` (configuration not stated), the GI50 in the test on CAKI-1 was > 100 µM (inactive); in the test on CCRF-CEM, > 100 µM (inactive); with HCT-15 it was more than 100 µM; in the test with HT-29, > 100 µM (inactive); in the test with MOLT-4, > 100 µM (inactive); in the test on NCI-H23, > 100 µM (inactive). The GI50 with NCI-H460, with NCI-H522, with OVCAR-3, in the test on SF-295, in the test on SF-539 and in the test on SK-MEL-28 was > 100 µM (inactive) in each case. In addition, the GI50 in the test with SK-MEL-2 is > 100 µM (inactive); with SK-OV-3, > 100 µM (inactive); with SNB-19 it was > 100 µM (inactive); in the test on SR, 95.3 µM (inactive); in the test with TK-10, > 100 µM (inactive); with UACC-62, > 100 µM (inactive). Further, the GI50 in the test on UO-31 is > 100 µM (inactive).
As for `OC(c1ccccc1)C(F)(F)c1nc2ccccc2o1` (configuration not stated), the GI50 with CAKI-1 was > 100 µM (inactive); in the test on CCRF-CEM, 61.2 µM (inactive); in the test on HCT-15, more than 100 µM; in the test with HT-29, > 100 µM (inactive); with LOX IMVI it was > 100 µM (inactive); with MOLT-4 it was 57.3 µM (inactive). The GI50 with NCI-H23, in the test with NCI-H460, in the test with SF-295, with SF-539, in the test on SK-MEL-28 and with SK-MEL-2 was > 100 µM (inactive) throughout. Also, the GI50 with SK-OV-3, in the test on SNB-19, with SR, with TK-10, in the test on UACC-62 and in the test on UO-31 was > 100 µM (inactive) each time.
For `CCOC(=O)C1C(=O)CC1(C)C` (configuration not stated), the GI50 was > 10 µM (inactive) with CAKI-1; > 10 µM (inactive) in the test with CCRF-CEM; more than 10 µM in the test with HCT-15; > 10 µM (inactive) with HT-29; > 10 µM (inactive) in the test on LOX IMVI; > 10 µM (inactive) in the test on MOLT-4. Besides, the GI50 in the test on NCI-H23, in the test on NCI-H460, in the test on OVCAR-3, in the test on SF-295, in the test on SF-539 and in the test on SK-MEL-28 was > 10 µM (inactive) throughout. Further, the GI50 in the test on SK-MEL-2, with SK-OV-3, in the test with SNB-19, in the test on SR, in the test with TK-10 and with UACC-62 was > 10 µM (inactive) in each case. Moreover, the GI50 with UO-31 was > 10 µM (inactive).
For the compound `Cn1ncc2ccc3[nH]c4ccccc4c(=O)c3c21`, the GI50 was 23.4 µM (inactive) in the test on CAKI-1; 38.3 µM (inactive) in the test on CCRF-CEM; 22.9 µM with HCT-15; 35 µM (inactive) in the test with HT-29; 18.7 µM (inactive) with LOX IMVI; 28.9 µM (inactive) in the test with MOLT-4. For the same compound, the GI50 was 20.6 µM (inactive) in the test on NCI-H23; 28.7 µM (inactive) in the test on NCI-H460; 17.5 µM (inactive) in the test on NCI-H522; 37.3 µM (inactive) in the test with OVCAR-3; 34.8 µM (inactive) with SF-295; 36.3 µM (inactive) in the test on SK-MEL-28. Also, the GI50 was 33.1 µM (inactive) with SK-MEL-2; 50.7 µM (inactive) in the test with SK-OV-3; 38.3 µM (inactive) with SNB-19; 29.9 µM (inactive) in the test with SR; 21.1 µM (inactive) with TK-10; 16.9 µM (inactive) with UACC-62. For the same compound, in the test on UO-31, the GI50 is 15 µM (inactive).
As for `FC(F)(Sc1nc2ccccc2[nH]1)c1nc2ccccc2o1`, the GI50 in the test on CAKI-1 is > 100 µM (inactive); in the test on CCRF-CEM, > 100 µM (inactive); in the test with HCT-15, more than 100 µM; in the test on HT-29, > 100 µM (inactive); with MOLT-4 it was > 100 µM (inactive); in the test on NCI-H23, > 100 µM (inactive). Moreover, the GI50 in the test on NCI-H460 is > 100 µM (inactive); in the test with NCI-H522, 15.8 µM (inactive); in the test on OVCAR-3, > 100 µM (inactive); in the test with SF-295, > 100 µM (inactive); in the test with SF-539 it was > 100 µM (inactive); with SK-MEL-28, > 100 µM (inactive). The GI50 with SK-MEL-2, with SK-OV-3, with SR, in the test on TK-10, in the test with UACC-62 and in the test on UO-31 was > 100 µM (inactive) throughout.
Regarding `Sc1ncc(-c2cncc(-c3cnc(S)nc3)n2)cn1`, the GI50 with CAKI-1 was > 100 µM (inactive); in the test with CCRF-CEM, > 100 µM (inactive); with HCT-15 it was more than 100 µM; in the test with HT-29, > 100 µM (inactive); in the test on MOLT-4, > 100 µM (inactive); in the test on NCI-H23, > 100 µM (inactive). Besides, the GI50 with NCI-H460, with NCI-H522, with OVCAR-3, in the test on SF-295, in the test with SF-539 and with SK-MEL-28 was > 100 µM (inactive) in each case. The GI50 is > 100 µM (inactive) with SK-MEL-2; > 100 µM (inactive) in the test with SK-OV-3; > 100 µM (inactive) in the test on SNB-19; 85.1 µM (inactive) with SR; > 100 µM (inactive) in the test on TK-10; > 100 µM (inactive) in the test with UACC-62. Moreover, the GI50 with UO-31 is > 100 µM (inactive).
On to `CC1(C)C2CCC(O)(C2)C1N` (configuration not stated), for which the GI50 was > 100 µM (inactive) in the test on CAKI-1; > 100 µM (inactive) in the test on CCRF-CEM; more than 100 µM in the test on HCT-15; > 100 µM (inactive) in the test with HT-29; > 100 µM (inactive) in the test on LOX IMVI; > 100 µM (inactive) in the test with MOLT-4. In addition, the GI50 in the test with NCI-H23, with NCI-H460, in the test with OVCAR-3, with SF-295, in the test on SF-539 and in the test with SK-MEL-28 was > 100 µM (inactive) throughout. In addition, the GI50 with SK-MEL-2, with SK-OV-3, with SNB-19, with SR, in the test with TK-10 and in the test on UACC-62 was > 100 µM (inactive) throughout. For the same compound, the GI50 in the test on UO-31 is > 100 µM (inactive).
`Cn1c2ccccc2c(=O)c2cccc(C(=O)NC(CS)C(=O)O)c21` (configuration not stated): the GI50 in the test with CAKI-1 is 32.8 µM (inactive); in the test on HCT-15, more than 100 µM; in the test on HT-29, > 100 µM (inactive); with LOX IMVI it was 53.6 µM (inactive); in the test with MOLT-4 it was 63.4 µM (inactive); in the test on NCI-H23, > 100 µM (inactive). Further, the GI50 is > 100 µM (inactive) in the test on NCI-H460; > 100 µM (inactive) in the test on OVCAR-3; > 100 µM (inactive) in the test with SF-295; 43.2 µM (inactive) in the test with SF-539; > 100 µM (inactive) with SK-MEL-28; > 100 µM (inactive) in the test with SK-MEL-2. The GI50 in the test on SK-OV-3 was > 100 µM (inactive); with SNB-19 it was > 100 µM (inactive); in the test with SR, 52.8 µM (inactive); with TK-10, > 100 µM (inactive); with UACC-62 it was > 100 µM (inactive); with UO-31 it was > 100 µM (inactive).
On to `C[C@H]1C(OCCOC2O[C@@H]3O[C@@]4(C)CC[C@H]5[C@H](C)CCC([C@H]2C)[C@@]35O4)O[C@@H]2O[C@@]3(C)CC[C@H]4[C@H](C)CCC1[C@@]24O3` (some centres not stated), for which the GI50 with CAKI-1 is 37.2 µM (inactive); in the test on CCRF-CEM it was 30.5 µM (inactive); with HCT-15, 28.2 µM; with HT-29, 35.4 µM (inactive); in the test on LOX IMVI, 23.7 µM (inactive); in the test with MOLT-4, 58.6 µM (inactive). Also, the GI50 is 31.6 µM (inactive) in the test on NCI-H23; 22.6 µM (inactive) with NCI-H460; 28.1 µM (inactive) with OVCAR-3; 55.7 µM (inactive) in the test on SF-539; 61.5 µM (inactive) in the test with SK-MEL-28; 17.7 µM (inactive) with SK-MEL-2. Also, the GI50 in the test on SK-OV-3 is 74.6 µM (inactive); in the test on SNB-19, 33.9 µM (inactive); with SR, 32.2 µM (inactive); with UACC-62 it was 61.2 µM (inactive).
For `COc1cc(C)c(CC/C(C)=C/Cc2cc(O)ccc2O)c(C)c1C` [PANICEIN A HYDROQUINONE], the GI50 in the test with CAKI-1 is > 25 µM (inactive); in the test on CCRF-CEM, 7.69 µM (inactive); with HCT-15, more than 25 µM; in the test on HT-29 it was > 25 µM (inactive); with MOLT-4 it was > 25 µM (inactive); in the test with NCI-H23, > 25 µM (inactive). The GI50 with NCI-H460, in the test with NCI-H522, with OVCAR-3, in the test on SF-295, with SF-539 and with SK-MEL-28 was > 25 µM (inactive) each time. Also, the GI50 in the test with SK-MEL-2, in the test with SK-OV-3, with SNB-19, in the test on SR, with TK-10 and with UO-31 was > 25 µM (inactive) throughout.
